The nature of this series: Hardness (radial breaking force) of 200 mg, 9 mm compacts from active ingredient preparation vs physical mixture. The format is physicochemical. The settings on record: 200 mg compacts, diameter 9 mm. Here is the method: The hardness of the round compacts means the radial breaking force.
Various compositions of the novel active ingredient preparation were compressed under various pressures using a type EKO press supplied by Korsch, Berlin, to give 200 mg compacts with a diameter of 9 mm. For comparison therewith, the physical mixtures (PM) of the same composition were compressed under analogous conditions, and the hardnesses of the produced compacts were compared. Physical mixtures mean the dry mixture of ibuprofen with the particular binder.
In contrast to the purely physical mixtures, the novel ibuprofen-containing active ingredient compositions result, even with low compressive forces, in compacts with hardnesses which are distinctly above the hardnesses of 25 N which are adequate for tablets.

The values that follow come from patent publication US20030045580A1, “Ibuprofen containing active agent preparation” (priority 2000, published 2003).

On to `CC(C)Cc1ccc(C(C)C(=O)O)cc1` (stereo not drawn) [0% (pure), 2-(4-isobutylphenyl)propionic acid], for which the “Hardness with a compressive force of 4.7 to 5.3 kN” value (compressive force 4.7 to 5.3 kN) came to 11.0 N. Besides, for the setting “compressive force 9.7 to 10.9 kN”, the “Hardness with a compressive force of 9.7 to 10.9 kN” value is on record as 10.8 N. In addition, the “Hardness with a compressive force of 20.1 to 21.1 kN” value (compressive force 20.1 to 21.1 kN) was determined as 20.1 N.
